These results are taken from patent publication US20250250269A1, “HETEROCYCLIC GLP-1 AGONISTS” (Gasherbrum Bio, Inc., priority 2022, published 2025).

As a reminder, the EC50 is the concentration giving half of the maximal effect.

Structures are written as SMILES. A value given as a limit tells only on which side of the number the result lay.

The test has as its target T1, GLP-1 Receptor (Homo sapiens, UniProt P43220).
T1 construct: host or cells: HEK293/CRE-Luc (HEK293/GLP1R/CRE-LUC)
Briefly: GLP-1R agonist cAMP stimulation assay (HEK293/GLP1R/CRE-LUC cells, Cisbio cAMP dynamic 2 kit). In kind it is cell-based. The settings on record: HEK293/CRE-Luc cells stably expressing the GLP-1 Receptor, 30 min at 37° C. Here is the method: Activation of GLP-1 receptor is known to stimulate cyclic AMP (cAMP) production in cells which indicates primary coupling to the Gas subunit of the G protein heterotrimeric complex.
To optimize functional activity directed toward Gas coupling, a HEK293/CRE-Luc cell line developed by HDB stably expressing the GLP-1 Receptor was used. 200× concentration of compound working solutions were prepared (Agilent Technologies Bravo) with ½ log serial dilution in 384-well Echo LDV plate (Labcyte, Cat #LP-0200). […] 200× concentration of compound working solutions were moved to 384-well white low volume plate (Greiner, Cat #784075) using Labcyte ECHO550. 1×10^5 cells/mL HEK293/GLP1R/CRE-LUC (HD Biosciences) cell suspensions prepared with assay buffer [DPBS containing 0.5 mM IBMX (Sigma, Cat #15879) and 0.1% BSA (GENVIEW, Cat #FA016-100g)], 10 μL cell suspensions were added to each well of previous generated assay plate which already contains […] compound at 200×concentration using ThermoFisher Multidrop Combi (1000 cells/well). Seal the plate and incubate at 37° C. with 5% CO2 for 30 min.
After incubation the cAMP assay signal was generated using cAMP dynamic 2 Kit (Cisbio). 5 μL cAMP-d2 working solution was added to each well, followed with 5 μL Anti-cAMP antibody-cryptate working solution added to each well using ThermoFisher Multidrop Combi. Incubate at room temperature for 1 hour protected from light. Read the fluorescence at 665 and 615 nm with Reader PerkinElmer EnVision.

T1 sequence (P43220 24-463, species assumed): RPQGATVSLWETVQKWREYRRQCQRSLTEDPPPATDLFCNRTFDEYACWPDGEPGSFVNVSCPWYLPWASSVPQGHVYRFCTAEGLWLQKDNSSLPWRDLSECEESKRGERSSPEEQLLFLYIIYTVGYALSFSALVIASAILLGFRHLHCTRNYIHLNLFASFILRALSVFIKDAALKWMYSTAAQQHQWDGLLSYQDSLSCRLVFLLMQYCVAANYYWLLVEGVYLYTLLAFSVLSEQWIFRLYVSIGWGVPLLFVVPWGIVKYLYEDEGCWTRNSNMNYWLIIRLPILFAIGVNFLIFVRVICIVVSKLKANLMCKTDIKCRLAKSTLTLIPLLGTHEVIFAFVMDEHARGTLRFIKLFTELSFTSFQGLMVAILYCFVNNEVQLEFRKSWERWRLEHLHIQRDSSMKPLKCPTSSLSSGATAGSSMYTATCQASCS

Regarding `C[C@]1(c2ccc(Cl)cn2)Oc2cccc(C3CCN(Cc4nc5cc(-c6noc(=O)[nH]6)cc(F)c5n4C[C@@H]4CCO4)CC3)c2O1` [Compound 37, 3-(2-((4-((S)-2-(5-chloropyridin-2-yl)-2-methylbenzo[d][1,3]dioxol-4-yl)piperidin-1-yl)methyl)-7-fluoro-1-(((S)-oxetan-2-yl)methyl)-1H-benzo[d]imidazol-5-yl)-1,2,4-oxadiazol-5(4H)-one], the EC50 lay within 1 to 100 nM. With `O=c1[nH]c(-c2cc(F)c3c(c2)nc(CN2CCC(c4cccc(OCc5ccc(Cl)cc5F)n4)CC2)n3C[C@@H]2CCO2)no1` [Compound 38, (S)-3-(2-((4-(6-((4-chloro-2-fluorobenzyl)oxy)pyridin-2-yl)piperidin-1-yl)methyl)-7-fluoro-1-(oxetan-2-ylmethyl)-1H-benzo[d]imidazol-5-yl)-1,2,4-oxadiazol-5(4H)-one], the EC50 lay within 1 to 100 nM. `CC1(c2ccc(Cl)cc2F)Oc2cccc(C3=CCN(Cc4nc5cc(-c6noc(=O)[nH]6)cc(F)c5n4C[C@@H]4CCO4)CC3)c2O1` (stereo partly drawn) [Compound 39, 3-(2-((4-(2-(4-chloro-2-fluorophenyl)-2-methylbenzo[d][1,3]dioxol-4-yl)-3,6-dihydropyridin-1(2H)-yl)methyl)-7-fluoro-1-(((S)-oxetan-2-yl)methyl)-1H-benzo[d]imidazol-5-yl)-1,2,4-oxadiazol-5(4H)-one]: the EC50 lay in the range of 1 to 100 nM.

`Cc1nnc(-c2ccc3c(nc(CN4CCC(c5cccc6c5O[C@@](C)(c5ccc(Cl)cc5F)O6)CC4)n3C[C@@H]3CCO3)c2F)[nH]1` [Compound 40, 2-((4-((S)-2-(4-chloro-2-fluorophenyl)-2-methylbenzo[d][1,3]dioxol-4-yl)piperidin-1-yl)methyl)-4-fluoro-5-(5-methyl-4H-1,2,4-triazol-3-yl)-1-(((S)-oxetan-2-yl)methyl)-1H-benzo[d]imidazole] gave a concentration giving a half-maximal response (EC50) of less than 1 nM. `Cc1nnc(-c2cc(F)c3c(c2)nc(CN2CCC(c4cccc5c4O[C@@](C)(c4ccc(Cl)cc4F)O5)CC2)n3C[C@@H]2CCO2)[nH]1` [Compound 41, 2-((4-((S)-2-(4-chloro-2-fluorophenyl)-2-methylbenzo[d][1,3]dioxol-4-yl)piperidin-1-yl)methyl)-7-fluoro-5-(5-methyl-4H-1,2,4-triazol-3-yl)-1-(((S)-oxetan-2-yl)methyl)-1H-benzo[d]imidazole] displayed a concentration giving a half-maximal response (EC50) of less than 1 nM. `Cc1nnc(-c2cc(F)c3c(c2)nc(CN2CCC(c4cccc5c4O[C@@](C)(c4ccc(Cl)cn4)O5)CC2)n3C[C@@H]2CCO2)[nH]1` [Compound 42, 2-((4-((S)-2-(5-chloropyridin-2-yl)-2-methylbenzo[d][1,3]dioxol-4-yl)piperidin-1-yl)methyl)-7-fluoro-5-(5-methyl-4H-1,2,4-triazol-3-yl)-1-(((S)-oxetan-2-yl)methyl)-1H-benzo[d]imidazole] had an EC50 of less than 1 nM. `Cc1nnc(-c2cc(F)c3c(c2)nc(CN2CC=C(c4cccc5c4OC(C)(c4ccc(Cl)cc4F)O5)CC2)n3C[C@@H]2CCO2)[nH]1` (stereo partly drawn) [Compound 43, 2-((4-(2-(4-chloro-2-fluorophenyl)-2-methylbenzo[d][1,3]dioxol-4-yl)-3,6-dihydropyridin-1(2H)-yl)methyl)-7-fluoro-5-(5-methyl-4H-1,2,4-triazol-3-yl)-1-(((S)-oxetan-2-yl)methyl)-1H-benzo[d]imidazole] yielded an EC50 of 1 to 100 nM. For the molecule `C[C@]1(c2ccc(Cl)cc2F)Oc2cccc(C3=CCN(Cc4nc5cc(-c6nnc(C(F)(F)F)[nH]6)ncc5n4C[C@@H]4CCO4)CC3)c2O1` [Compound 44, 2-((4-((S)-2-(4-chloro-2-fluorophenyl)-2-methylbenzo[d][1,3]dioxol-4-yl)-3,6-dihydropyridin-1(2H)-yl)methyl)-3-(((S)-oxetan-2-yl)methyl)-6-(5-(trifluoromethyl)-4H-1,2,4-triazol-3-yl)-3H-imidazo[4,5-c]pyridine], the EC50 was less than 1 nM.

In turn, `C[C@]1(c2ccc(Cl)cc2F)Oc2cccc(C3=CCN(Cc4nc5cc(-c6nnc(C(F)(F)F)[nH]6)cnc5n4C[C@@H]4CCO4)CC3)c2O1` [Compound 45, 2-((4-((S)-2-(4-chloro-2-fluorophenyl)-2-methylbenzo[d][1,3]dioxol-4-yl)-3,6-dihydropyridin-1(2H)-yl)methyl)-3-(((S)-oxetan-2-yl)methyl)-6-(5-(trifluoromethyl)-4H-1,2,4-triazol-3-yl)-3H-imidazo[4,5-b]pyridine] displayed an EC50 of less than 1 nM.

As to `C[C@]1(c2ccc(Cl)cc2F)Oc2cccc(C3=CCN(Cc4nc5cc(-c6nnc(C(F)(F)F)[nH]6)nnc5n4C[C@@H]4CCO4)CC3)c2O1` [Compound 46, 6-((4-((S)-2-(4-chloro-2-fluorophenyl)-2-methylbenzo[d][1,3]dioxol-4-yl)-3,6-dihydropyridin-1(2H)-yl)methyl)-7-(((S)-oxetan-2-yl)methyl)-3-(5-(trifluoromethyl)-4H-1,2,4-triazol-3-yl)-7H-imidazo[4,5-c]pyridazine], the EC50 is less than 1 nM. `Fc1cc(Cl)ccc1COc1ccc(F)c(C2CCN(Cc3nc4cc(-c5nnc(C(F)(F)F)[nH]5)ncc4n3C[C@@H]3CCO3)CC2)n1` [Compound 47, 6-[(4-chloro-2-fluorophenyl)methoxy]-3-fluoro-2-{1-[(3-{[(2S)-oxetan-2-yl]methyl}-6-[5-(trifluoromethyl)-4H-1,2,4-triazol-3-yl]-3H-imidazo[4,5-c]pyridin-2-yl)methyl]piperidin-4-yl}pyridine] gave an EC50 of less than 1 nM. In turn, `Fc1cc(Cl)ccc1COc1nc(N2CCN(Cc3nc4cc(-c5nnc(C(F)(F)F)[nH]5)ncc4n3C[C@@H]3CCO3)CC2)c(F)cc1F` [Compound 48, 1-{6-[(4-chloro-2-fluorophenyl)methoxy]-3,5-difluoropyridin-2-yl}-4-[(3-{[(2S)-oxetan-2-yl]methyl}-6-[5-(trifluoromethyl)-4H-1,2,4-triazol-3-yl]-3H-imidazo[4,5-c]pyridin-2-yl)methyl]piperazine] displayed an EC50 of less than 1 nM. Consider `Fc1cc(Cl)ccc1COc1nc(C2CCN(Cc3nc4cc(-c5nnc(C(F)(F)F)[nH]5)ncc4n3C[C@@H]3CCO3)CC2)c(F)cc1F` [Compound 49, 2-[(4-chloro-2-fluorophenyl)methoxy]-3,5-difluoro-6-{1-[(3-{[(2S)-oxetan-2-yl]methyl}-6-[5-(trifluoromethyl)-4H-1,2,4-triazol-3-yl]-3H-imidazo[4,5-c]pyridin-2-yl)methyl]piperidin-4-yl}pyridine], for which the EC50 was less than 1 nM. For the molecule `Fc1cc(Cl)ccc1COc1nc(C2CCN(Cc3nc4cc(-c5nnc(C(F)(F)F)[nH]5)nnc4n3C[C@@H]3CCO3)CC2)c(F)cc1F` [Compound 50, 2-[(4-chloro-2-fluorophenyl)methoxy]-3,5-difluoro-6-{1-[(7-{[(2S)-oxetan-2-yl]methyl}-3-[5-(trifluoromethyl)-4H-1,2,4-triazol-3-yl]-7H-imidazo[4,5-c]pyridazin-6-yl)methyl]piperidin-4-yl}pyridine], the EC50 is less than 1 nM. For `O=C1CN(Cc2nc3cc(-c4nnc(C(F)(F)F)[nH]4)ncc3n2C[C@@H]2CCO2)CCN1c1ccc(F)c(OCc2ccc(Cl)cc2F)c1` [Compound 51, 1-{3-[(4-chloro-2-fluorophenyl)methoxy]-4-fluorophenyl}-4-[(3-{[(2S)-oxetan-2-yl]methyl}-6-[5-(trifluoromethyl)-4H-1,2,4-triazol-3-yl]-3H-imidazo[4,5-c]pyridin-2-yl)methyl]piperazin-2-one] the value was less than 1 nM.
